Each compound was assayed on Mv4-11 cells (assay: Inhibition of the proliferation of Mv4-11 cells (CCK8)). Settings: Homo sapiens, MV4-11, 48 h, Mv4-11 cell proliferation, CCK8 OD450.
Assay type: cell-based
Experimental: The inhibition effect of the compounds of the present disclosure on the proliferation of Mv4-11 cells (ATCC:CRL-9591TM) in vitro was determined by the following method:
Cell inoculation: Mv4-11 cells with good growing state in logarithmic growth phase were inoculated into a 96-well plate at 20000 cells per well and 50 uL, and cultured at 37° C. and under 5% CO2 condition for 2-4 h. Administration: The compound was diluted with 1640 medium containing 10% FBS and 1% PS: 0.4 uL of the compound with an initial concentration of 1 mM was placed in a dilution plate, each added with 199.6 uL of the above culture medium, and gradiently diluted 4-fold, so that the final concentration in the added cell was 1000, 250, 62.5, 15.625, 3.91, 0.98, 0.24, 0.06 nM. 50 μL of the medium containing the compound was sequentially added, and it was placed in a 37° C., 5% CO2 cell incubator for 48 hours.
Detection: 10 uL CCK8 (Dojindo, CK 04) solution was added to each well, incubated in 37° C. 5% CO2 cell incubator for 2 hours, and then the OD450 value was read by Synegry H1 (BioTek) multimode microplate reader.
Calculation: The IC50 value was calculated using Graphpad prism 5.0 software according to the concentration of the compound and the corresponding signal value.

In order of falling IC50:
1. CC(=O)N1CC[C@]2(CC[C@H](C(=O)Nc3cc(-c4cnn5c4CC(C)(C)C5)c(Cl)cn3)C2)C1 (single isomer, unassigned) [Compound 19-2]  84.2 nM
2. CC1(C)Cc2c(-c3cc(NC(=O)[C@@H]4CCC[C@@H](c5ccncc5)C4)ncc3Cl)cnn2C1 (single isomer, unassigned) [Compound 21-4]  71.9 nM
3. CC1(C)Cc2c(-c3cc(NC(=O)[C@H]4CCC[C@H](c5ccncc5)C4)ncc3Cl)cnn2C1 (single isomer, unassigned) [Compound 21-1]  68.5 nM
4. CC(=O)N[C@@H]1CCC[C@H](C(=O)Nc2cc(-c3cc(C(N)=O)c4n3CC(C)(C)C4)ccn2)C1 [Compound 28, 5-(2-((1S,3R)-3-acetylaminocyclohexane-1-carboxamido)pyridin-4-yl)-2,2-dimethyl-2,3-dihydro-1H-pyrrolizine-7-carboxamide]  36.5 nM
5. CC(=O)N[C@@H]1CCC[C@H](C(=O)Nc2cc(-c3cc(C#N)n4c3CC(C)(C)C4)c(F)cn2)C1 [Compound 10, (1S,3R)-3-acetamido-N-(4-(5-cyano-2,2-dimethyl-2,3-dihydro-1H-pyrrolizin-7-yl)-5-fluoropyridin-2-yl)cyclohexane-1-carboxamide]  26.9 nM
6. CC(=O)N[C@H]1C[C@@H]2C[C@@H](C(=O)Nc3cc(-c4cc(C#N)n5c4CC(C)(C)C5)c(Cl)cn3)C[C@@H]2C1 (single isomer, unassigned) [Compound 14-1-1]  23.9 nM
7. CC1(C)Cc2c(-c3cc(NC(=O)[C@@H]4CCC[C@H](c5ccncc5)C4)ncc3Cl)cnn2C1 (single isomer, unassigned) [Compound 21-2]  16.2 nM
8. CC(=O)N1C[C@H]2C[C@H](C(=O)Nc3cc(-c4cnn5c4CC(C)(C)C5)c(Cl)cn3)C[C@H]2C1 [Compound 4-1, (3aR,5s,6aS)-2-acetyl-N-(5-chloro-4-(5,5-dimethyl-5,6-dihydro-4H-pyrrolo[1,2-b]pyrazol-3-yl)pyridin-2-yl)octahydrocyclopenta[c]pyrrole-5-carboxamide]  14.8 nM
9. CC(=O)N[C@@H]1C[C@@H]2C[C@@H](C(=O)Nc3cc(-c4cc(C#N)n5c4CC(C)(C)C5)c(Cl)cn3)C[C@@H]2C1 (single isomer, unassigned) [Compound 14-1-2]  11.1 nM
10. CC(=O)N[C@@H]1C[C@@H]2C[C@H](C(=O)Nc3cc(-c4cc(C(N)=O)n5c4CC(C)(C)C5)c(F)cn3)C[C@@H]2C1 [Compound 34-2, 7-(2-((2s,3aR,5r,6aS)-5-acetylaminooctahydropentalene-2-carboxamido)-5-fluoropyridin-4-yl)-2,2-dimethyl-2,3-dihydro-1H-pyrrolizine-5-carboxamide]  9 nM
11. CC(=O)N1C[C@H]2C[C@@H](C(=O)Nc3cc(-c4cc(C#N)n5c4CC(C)(C)C5)c(Cl)cn3)C[C@H]2C1 [Compound 7-2, (3aR,5r,6aS)-2-acetyl-N-(5-chloro-4-(5-cyano-2,2-dimethyl-2,3-dihydro-1H-pyrrolizin-7-yl)pyridin-2-yl)octahydrocyclopenta[c]pyrrole-5-carboxamide]  8.6 nM
12. CC(=O)N[C@@H]1CCC[C@H](C(=O)Nc2cc(-c3cnn4c3CC(C)(C)C4)c(Cl)cn2)C1 [AZD4573, reference compound]  4.2 nM
13. CC(=O)N[C@@H]1CCC[C@H](C(=O)Nc2cc(-c3cc(C#N)n4c3CC(C)(C)C4)ccn2)C1 [Compound 11, (1S,3R)-3-acetamido-N-(4-(5-cyano-2,2-dimethyl-2,3-dihydro-1H-pyrrolizin-7-yl)pyridin-2-yl)cyclohexane-1-carboxamide]  2.2 nM
14. CC(=O)N[C@@H]1CCC[C@H](C(=O)Nc2cc(-c3cc(C(N)=O)n4c3CC(C)(C)C4)c(F)cn2)C1 [Compound 33, 7-(2-((1S,3R)-3-acetylaminocyclohexane-1-carboxamido)-5-fluoropyridin-4-yl)-2,2-dimethyl-2,3-dihydro-1H-pyrrolizine-5-carboxamide]  1.3 nM
